Test results: patent US7045305B1, “Methods and reagents for targeting organic compounds to selected cellular locations” (The Regents of the University of California, priority 1998, dated 2006)

How the values were obtained:
vacuolar H+ pump = assay: Golgi lumenal pH time course with Golgi-targeted phOx-fluorescein; type: cell-based; details: 100 nM, Golgi pH initially ~6.3, individual cells
Procedure: Cells were labeled at two days after transfection, with phOx-fluorophore conjugates by incubation with low concentrations (<100 nM) of the conjugates. […] Images were recorded at room temperature on a K2 BIO microscope (Technical Instruments) equipped with a 60× PlanApo objective (Nikon, N. A. 1.4), coaxial-confocal attachment, and cooled CCD camera (Photometrics). Dual-excitation ratio images of fluorescein were acquired using 440 and 490 nm excitation filters and a 520 nm long pass emission filter (Chroma). Continuous recordings of the fluorescence time course were obtained on a Nikon Diaphot epifluorescence microscope equipped with a 100× PlanApo objective (Nikon, N. A. 1.4), a photomultiplier using a 530 nm bandpass emission filter and an optical filter changer (Model 10-C, Sutter Instrument Co.) containing 440 and 490 nm excitation filters. Cuvette fluorescence measurements were conducted on an SLM 8000c fluorometer (SLM Aminco). Spectra were recorded with 4 nm slit widths; time courses were acquired with 495 nm excitation and a […] longpass emission filter.
Organelle-specific sFv targeting was applied to measure Golgi pH using phOx-fluorescein as the probe. […] The dependence of the fluorescence ratio on pH was measured for Golgi and plasma membrane-expressed sFv (FIG. 4A). […]

[1] = test system: CHO cells expressing targeted sFv; assay: Site-specific fluorescent labeling of living CHO cells expressing targeted sFv; type: cell-based; details: addition of 1 μM
Procedure: CHO cells (ATCC CRL 9618) were transfected with plasmids encoding targeted sFv using lipofectamine (Gibco) as is known in the art.
Cells were labeled at two days after transfection, with phOx-fluorophore conjugates by incubation with low concentrations (<100 nM) of the conjugates. […] Images were recorded at room temperature on a K2 BIO microscope (Technical Instruments) equipped with a 60× PlanApo objective (Nikon, N. A. 1.4), coaxial-confocal attachment, and cooled CCD camera (Photometrics). Dual-excitation ratio images of fluorescein were acquired using 440 and 490 nm excitation filters and a 520 nm long pass emission filter (Chroma). Continuous recordings of the fluorescence time course were obtained on a Nikon Diaphot epifluorescence microscope equipped with a 100× PlanApo objective (Nikon, N. A. 1.4), a photomultiplier using a 530 nm bandpass emission filter and an optical filter changer (Model 10-C, Sutter Instrument Co.) containing 440 and 490 nm excitation filters. Cuvette fluorescence measurements were conducted on an SLM 8000c fluorometer (SLM Aminco). Spectra were recorded with 4 nm slit widths; time courses were acquired with 495 nm excitation and a 510 mm longpass emission filter.
The various sFv targeting constructs and phOx conjugates were studied in CHO cells. […] For quantitative measurement of organelle pH, the free dye was washed out of the bathing solutions.

CO/C1=C\C(C)=C\[C@@H](C)[C@@H](O)[C@@H](C)C/C(C)=C/C=C/[C@H](OC)[C@@H]([C@@H](C)[C@@H](O)[C@H](C)[C@@]2(O)C[C@@H](O)[C@H](C)[C@@H](C(C)C)O2)OC1=O [bafilomycin A1]
change of Golgi pH after addition (vacuolar H+ pump): promptly alkalinized

O=C1OC(c2ccccc2)=NC1=CNCCO [phOx-ethanolamine]
effect on phOx-Bodipy staining of Golgi (competition) [1]: reversed
